The text below walks through data of patent publication US20150225369A1, “DDR2 INHIBITORS FOR THE TREATMENT OF OSTEOARTHRITIS” (Merck Patent GmbH, priority 2012, published 2015).

Each structure is given as a SMILES string.

One test concerns the target T1, His-tagged human recombinant DDR-2 kinase domain (His-TEV-DDR2 467-855 aa) (Homo sapiens, UniProt Q16832).
T1 construct: His-TEV-DDR2 467-855 aa
T1 sequence (Q16832 467-855): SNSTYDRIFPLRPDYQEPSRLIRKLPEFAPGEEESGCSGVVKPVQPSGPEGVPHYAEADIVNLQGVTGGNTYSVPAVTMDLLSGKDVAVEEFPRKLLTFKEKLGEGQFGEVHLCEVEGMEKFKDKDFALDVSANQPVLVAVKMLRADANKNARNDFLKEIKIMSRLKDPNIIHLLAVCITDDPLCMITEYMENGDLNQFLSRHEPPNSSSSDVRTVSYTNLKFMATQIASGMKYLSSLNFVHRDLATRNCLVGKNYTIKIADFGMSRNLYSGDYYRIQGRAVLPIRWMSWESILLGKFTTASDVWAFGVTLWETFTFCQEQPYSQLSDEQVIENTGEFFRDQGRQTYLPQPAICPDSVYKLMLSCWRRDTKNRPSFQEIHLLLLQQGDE
Put plainly: Autophosphorylation assay for biochemical activity testing of DDR2 (HTRF). The settings on record: 4 nM DDR2 kinase domain, 150 μM ATP, 150 min at 22° C. In a few lines:
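Phospho-tyrosine was detected by HTRF between XL665 anti-6His and cryptate anti-phosphotyrosine PT66 antibodies, using the emission ratio. Inhibition was referenced to the inhibitor-free reaction.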
Usually IC50 stands for the concentration that gives 50% inhibition. In the case of `Cc1cc(Oc2ccc(CNC(=O)Nc3cc4ccccc4cn3)cc2C)ccn1` [compound 34], the IC50 was found to be 11000 nM.

As to `CNC(=O)c1cc(Oc2ccc(CNC(=O)Nc3ccnc(Cl)c3)cc2)ccn1` [compound 6], the IC50 was 1000 nM.

`CNC(=O)c1cc(Oc2ccc(CNC(=O)Nc3cnc4ccccc4c3)cc2)ccn1` [compound 10]: the IC50 stood at 290 nM.

Staying with this test, now noted: biochemical DDR2 autophosphorylation.
In the case of `CNC(=O)c1cc(Oc2ccc(CNC(=O)Nc3cc(C)c(Cl)cc3OCCN3CCNCC3)cc2)ccn1` [compound 120, 4-(4-{3-[4-Chloro-5-methyl-2-(2-piperazin-1-yl-ethoxy)-phenyl]-ureidomethyl}-phenoxy)-pyridine-2-carboxylic acid methylamide], the IC50 was found to be 176 nM.

`Cc1ccc(NC(=O)NCc2ccc(Oc3ccncc3)cc2)c(C)c1` [compound 30]: the IC50 stood at 28000 nM.

`COc1ccc(NC(=O)NCc2ccc(Oc3ccncc3)cc2)cc1` [compound 17]: the IC50 is 13000 nM.

Consider `CSc1ccc(NC(=O)NCc2ccc(Oc3ccncc3)cc2)cc1` [compound 51, 1-(4-Methylsulfanyl-phenyl)-3-[4-(pyridin-4-yloxy)-benzyl]-urea], for which the half-inhibitory concentration (IC50) is 10000 nM.

For the compound `CCN(CC)CCOc1cc(Cl)c(C(F)(F)F)cc1NC(=O)NCc1ccc(Oc2ccnc(C(=O)NC)c2)cc1` [compound 132, 4-(4-{3-[4-Chloro-2-(2-diethylamino-ethoxy)-5-trifluoromethyl-phenyl]-ureidomethyl}-phenoxy)-pyridine-2-carboxylic acid methylamide], the IC50 turned out to be 125 nM.

In the case of `COc1ccc(Cl)cc1NC(=O)NCc1ccc(Oc2ccncc2)cc1` [compound 32], the IC50 was 87 nM.

Regarding `CNC(=O)c1cc(Oc2ccc(CNC(=O)Nc3cc(C(F)(F)F)c(Cl)cc3OCC(=O)OC)cc2)ccn1` [compound 113, (5-Chloro-2-{3-[4-(2-methylcarbamoyl-pyridin-4-yloxy)-benzyl]-ureido}-4-trifluoromethyl-phenoxy)-acetic acid methyl ester], the IC50 came to 57 nM.

In the case of `CNC(=O)c1cc(Oc2ccc(CNC(=O)Nc3cc(C)ccc3OC3CCNCC3)cc2C)ccn1` [compound 171, 4-(2-Methyl-4-{3-[5-methyl-2-(piperidin-4-yloxy)-phenyl]-ureidomethyl}-phenoxy)-pyridine-2-carboxylic acid methylamide], the IC50 stood at 47 nM.

For `O=C(NCc1ccc(Oc2ccncc2)cc1)Nc1ccc(Cl)cc1` [compound 16], the half-maximal inhibitory concentration (IC50) was 5900 nM.

As for `COc1cc(Cl)c(C)cc1NC(=O)NCc1ccc(Oc2ccnc(C(=O)NCCCCCCN)c2)cc1` [compound 126, 4-{4-[3-(4-Chloro-2-methoxy-5-methyl-phenyl)-ureidomethyl]-phenoxy}-pyridine-2-carboxylic acid (6-amino-hexyl)-amide], the half-maximal inhibitory concentration (IC50) was 150 nM.

Turning to `CNC(=O)c1cc(Oc2ccc(CNC(=O)Nc3cc(C(F)(F)F)ccc3OCCN)cc2)ccn1` [compound 121, 4-(4-{3-[2-(2-Amino-ethoxy)-5-trifluoromethyl-phenyl]-ureidomethyl}-phenoxy)-pyridine-2-carboxylic acid methylamide], the IC50 worked out at 34 nM.

Consider `CNC(=O)c1cc(Oc2ccc(CNC(=O)Nc3cc(Cl)ccc3OC)c(C)c2)ccn1` [compound 104, 4-{4-[3-(5-Chloro-2-methoxy-phenyl)-ureidomethyl]-3-methyl-phenoxy}-pyridine-2-carboxylic acid methylamide], for which the IC50 turned out to be 270 nM.

Consider `Cc1cc(Cl)ccc1NC(=O)NCc1ccc(Oc2ccncc2)cc1` [compound 54, 1-(4-Chloro-2-methyl-phenyl)-3-[4-(pyridin-4-yloxy)-benzyl]-urea], for which the IC50 is at least 100000 nM.

As for `CNC(=O)c1cc(Oc2ccc(CNC(=O)Nc3ccncc3)cc2)ccn1` [compound 90, 4-{4-[(3-Pyridin-4-yl-ureido)-methyl]-phenoxy}-pyridine-2-carboxylic acid methylamide], the IC50 was at least 100000 nM.

As for `Cc1ccc(Cl)cc1NC(=O)NCc1ccc(Oc2ccncc2)cc1` [compound 50, 1-(5-Chloro-2-methyl-phenyl)-3-[4-(pyridin-4-yloxy)-benzyl]-urea], the IC50 was 1700 nM.

Take `CNC(=O)c1cc(Oc2ccc(CNC(=O)Nc3cc(Cl)c(C)cc3OC)cc2C)ccn1` [compound 151, 4-{4-[3-(5-Chloro-2-methoxy-4-methyl-phenyl)-ureidomethyl]-2-methyl-phenoxy}-pyridine-2-carboxylic acid methylamide]: the IC50 is 100 nM.

In the case of `CCOc1ccc(NC(=O)NCc2ccc(Oc3ccncc3)cc2)cc1` [compound 41, 1-(4-Ethoxy-phenyl)-3-[4-(pyridin-4-yloxy)-benzyl]-urea], the IC50 is at least 100000 nM.

In the case of `CNC(=O)c1cc(Oc2ccc(CNC(=O)Nc3cnc4ccccc4c3)cc2)ccn1` [compound 97, 4-{4-[(3-Quinolin-3-yl-ureido)-methyl]-phenoxy}-pyridine-2-carboxylic acid methylamide], the IC50 came to 290 nM.

With `CNC(=O)c1cc(Oc2ccc(CNC(=O)Nc3cc(Cl)c(C)cc3OCCN3CCCC3)cc2)ccn1` [compound 173, 4-(4-{3-[5-Chloro-4-methyl-2-(2-pyrrolidin-1-yl-ethoxy)-phenyl]-ureidomethyl}-phenoxy)-pyridine-2-carboxylic acid methylamide], the IC50 was found to be 260 nM.

On to `Cc1cc2nccc(Oc3ccc(CNC(=O)Nc4cc(C)c(Cl)cc4OCCN(C)C)cc3C)c2o1` [compound 253, 1-[4-Chloro-2-(2-dimethylamino-ethoxy)-5-methyl-phenyl]-3-[3-methyl-4-(2-methyl-furo[3,2-b]pyridin-7-yloxy)-benzyl]-urea], for which the IC50 amounted to 70 nM.
